Reference: ChEMBL document CHEMBL3045073, “Synthesis of -amino carbonyl derivatives of coumarin and benzofuran and evaluation of their biological activity” (Med Chem Res, 2013)
Converted amounts (≈) assume the structure as drawn.

Tests used:
[1] = system: Chrysosporium keratinophilum; experiment: Antifungal activity against Chrysosporium keratinophilum assessed as growth inhibition after 72 hr by serial broth dilution method; type: functional
[2] = system: Staphylococcus aureus; experiment: Antibacterial activity against Staphylococcus aureus ATCC 25923 assessed as growth inhibition at 50 mg/mL after 24 hr by agar well diffusion method; details: ATCC 25923, 24 h, read-out: IZ
[3] = system: Pseudomonas aeruginosa; experiment: Antibacterial activity against Pseudomonas aeruginosa ATCC 27853 assessed as growth inhibition at 50 mg/mL after 24 hr by agar well diffusion method; type: functional; details: ATCC 27853, 24 h, read-out: IZ
[4] = system: Radical scavenging activity; experiment: Antioxidant activity assessed as DPPH free radical scavenging activity at 100 ug/mL after 10 min UV-Vis spectrophotometric analysis relative to control; type: functional
[5] = system: Aspergillus flavus; experiment: Antifungal activity against Aspergillus flavus assessed as growth inhibition at 50 mg/mL after 72 hr by agar well diffusion method; type: functional; details: read-out: IZ
[6] = system: Candida albicans; experiment: Antifungal activity against Candida albicans MTCC227 assessed as growth inhibition at 50 mg/mL after 72 hr by agar well diffusion method; details: MTCC227, 72 h, read-out: IZ
[7] = system: Chrysosporium keratinophilum; experiment: Antifungal activity against Chrysosporium keratinophilum assessed as growth inhibition at 50 mg/mL after 72 hr by agar well diffusion method; type: functional; details: read-out: IZ
[8] = system: Escherichia coli; experiment: Antibacterial activity against Escherichia coli ATCC 25922 assessed as growth inhibition at 50 mg/mL after 24 hr by agar well diffusion method; details: ATCC 25922, 24 h, read-out: IZ
[9] = system: Escherichia coli; experiment: Antibacterial activity against Escherichia coli ATCC 25922 assessed as growth inhibition after 24 hr by serial broth dilution method; details: ATCC 25922, 24 h
[10] = system: Staphylococcus aureus; experiment: Antibacterial activity against Staphylococcus aureus ATCC 25923 assessed as growth inhibition after 24 hr by serial broth dilution method; details: ATCC 25923, 24 h
[11] = Metal chelating activity of the compound assessed as ferrous ion complex formation at 0.5 to 2 mg/mL after 10 min by spectrophotometric analysis
[12] = system: Candida albicans; experiment: Antifungal activity against Candida albicans MTCC227 assessed as growth inhibition after 72 hr by serial broth dilution method; details: MTCC227, 72 h
[13] = system: Aspergillus flavus; experiment: Antifungal activity against Aspergillus flavus assessed as growth inhibition after 72 hr by serial broth dilution method; type: functional
[14] = system: Pseudomonas aeruginosa; experiment: Antibacterial activity against Pseudomonas aeruginosa ATCC 27853 assessed as growth inhibition after 24 hr by serial broth dilution method; type: functional; details: ATCC 27853, 24 h
[15] = system: Escherichia coli; experiment: Antibacterial activity against Escherichia coli ATCC 25922 assessed as growth inhibition at 0.5 to 1 mg/mL after 24 hr by agar well diffusion method
[16] = system: Pseudomonas aeruginosa; experiment: Antibacterial activity against Pseudomonas aeruginosa ATCC 27853 assessed as growth inhibition at 0.5 to 1 mg/mL after 24 hr by agar well diffusion method; type: functional
[17] = system: Staphylococcus aureus; experiment: Antibacterial activity against Staphylococcus aureus ATCC 25923 assessed as growth inhibition at 0.5 to 1 mg/mL after 24 hr by agar well diffusion method

Row | MIC [1] [µg/mL] | MIC [9] [µg/mL] | MIC [10] [µg/mL] | Activity [11] [%] | MIC [12] [µg/mL] | MIC [13] [µg/mL] | MIC [14] [µg/mL] | MIC ([15]; Escherichia coli, ATCC 25922, 24 h) [µg/mL] | MIC ([16]; Pseudomonas aeruginosa, ATCC 27853, 24 h) [µg/mL] | MIC ([17]; Staphylococcus aureus, ATCC 25923, 24 h) [µg/mL] | Compound | zone of inhibition at 50000 µg/mL [2] [mm] | zone of inhibition at 50000 µg/mL [3] [mm] | Activity [4] [%] | zone of inhibition at 50000 µg/mL [5] [mm] | zone of inhibition at 50000 µg/mL [6] [mm] | zone of inhibition at 50000 µg/mL [7] [mm] | zone of inhibition at 50000 µg/mL [8] [mm] | inhibition zone (IZ) [15] [mm] | inhibition zone (IZ) [16] [mm] | inhibition zone (IZ) [17] [mm]
1 | 500 (≈ 1300 µM) | 500 (≈ 1300 µM) | 450 (≈ 1170 µM) | 69.6 | 400 (≈ 1040 µM) | 500 (≈ 1300 µM) | 500 (≈ 1300 µM) |  |  |  | O=C(O)c1ccc(NC(CC(=O)c2cc3ccccc3o2)c2ccccc2)cc1 (centres undefined) | 3 | 3 | 52.2 | 3 | 2 | 2 | 3 |  |  | 
2 | 200 (≈ 484 µM) | 50 (≈ 121 µM) | 100 (≈ 242 µM) | 64.3 | 150 (≈ 363 µM) | 250 (≈ 605 µM) | 150 (≈ 363 µM) |  |  |  | O=C(O)c1ccc(NC(CC(=O)c2cc3ccccc3oc2=O)c2ccccc2)cc1 (centres undefined) | 11 | 12 | 64.6 | 11 | 17 | 13 | 10 |  |  | 
3 |  |  |  |  |  |  |  | 30 (≈ 51.6 µM) | 30 (≈ 51.6 µM) | 30 (≈ 51.6 µM) | CN[C@@H]1[C@H](O[C@H]2[C@H](O[C@H]3[C@H](O)[C@@H](O)[C@H](N=C(N)N)[C@@H](O)[C@@H]3N=C(N)N)O[C@@H](C)[C@]2(O)C=O)O[C@@H](CO)[C@H](O)[C@H]1O [STREPTOMYCIN] |  |  |  |  |  |  |  | 14 | 13 | 12
